Data from ChEMBL document CHEMBL4118139, “Novel naphthyloxy derivatives - Potent histamine H3 receptor ligands. Synthesis and pharmacological evaluation” (Bioorg Med Chem, 2018).
Calls of active or inactive are those of the source. No cut-off for these calls is given here.

Assays:
Histamine H3 receptor [1] = biological target: T1, Histamine H3 receptor (Homo sapiens, UniProt Q9Y5N1); experiment: Displacement of [3H]N-alpha-methylhistamine from full length human H3 receptor expressed in HEK293 cell membranes after 90 mins
T1 sequence (Q9Y5N1 whole entry): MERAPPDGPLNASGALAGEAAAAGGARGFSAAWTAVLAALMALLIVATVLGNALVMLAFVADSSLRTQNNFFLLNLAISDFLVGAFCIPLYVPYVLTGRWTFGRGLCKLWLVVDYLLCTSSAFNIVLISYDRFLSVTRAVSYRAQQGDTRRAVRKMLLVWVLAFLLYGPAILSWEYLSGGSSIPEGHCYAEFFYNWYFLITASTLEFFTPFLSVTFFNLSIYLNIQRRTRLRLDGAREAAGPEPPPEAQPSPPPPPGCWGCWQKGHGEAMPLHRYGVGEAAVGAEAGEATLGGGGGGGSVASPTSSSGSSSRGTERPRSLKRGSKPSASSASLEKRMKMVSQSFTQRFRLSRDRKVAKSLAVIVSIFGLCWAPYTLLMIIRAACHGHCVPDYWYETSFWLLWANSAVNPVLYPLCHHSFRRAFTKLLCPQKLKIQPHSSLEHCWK

HEK293 = experiment: Cytotoxicity against HEK293 cells assessed as reduction in cell viability after 72 hrs by MTS assay; type: cell-based; conditions: Homo sapiens, HEK293, 72 h
HepG2 = experiment: Cytotoxicity against human HepG2 cells assessed as reduction in cell viability after 72 hrs by MTS assay; type: cell-based; conditions: HepG2, 72 h
IMR-32 = experiment: Cytotoxicity against human IMR32 cells assessed as reduction in cell viability after 72 hrs by MTS assay; type: cell-based; conditions: IMR-32, 72 h
Salmonella typhimurium [2] = experiment: Mutagenicity in Salmonella typhimurium TA100 assessed as increase in number of revertants at 1 uM after 90 mins by Ames test; type: toxicity, organism-based; conditions: salmonella enterica subsp. enterica serovar typhimurium, 1.5 h
Salmonella typhimurium [3] = experiment: Mutagenicity in Salmonella typhimurium TA100 assessed as increase in number of revertants at 10 uM after 90 mins by Ames test; type: toxicity, organism-based; conditions: salmonella enterica subsp. enterica serovar typhimurium, 1.5 h
CYP3A4 = CYP3A4 (Homo sapiens, UniProt P08684); experiment: Inhibition of CYP3A4 (unknown origin) at 25 uM by CYP3A4 P450-Glo assay; type: ADME
Sequence of CYP3A4 (P08684 whole entry): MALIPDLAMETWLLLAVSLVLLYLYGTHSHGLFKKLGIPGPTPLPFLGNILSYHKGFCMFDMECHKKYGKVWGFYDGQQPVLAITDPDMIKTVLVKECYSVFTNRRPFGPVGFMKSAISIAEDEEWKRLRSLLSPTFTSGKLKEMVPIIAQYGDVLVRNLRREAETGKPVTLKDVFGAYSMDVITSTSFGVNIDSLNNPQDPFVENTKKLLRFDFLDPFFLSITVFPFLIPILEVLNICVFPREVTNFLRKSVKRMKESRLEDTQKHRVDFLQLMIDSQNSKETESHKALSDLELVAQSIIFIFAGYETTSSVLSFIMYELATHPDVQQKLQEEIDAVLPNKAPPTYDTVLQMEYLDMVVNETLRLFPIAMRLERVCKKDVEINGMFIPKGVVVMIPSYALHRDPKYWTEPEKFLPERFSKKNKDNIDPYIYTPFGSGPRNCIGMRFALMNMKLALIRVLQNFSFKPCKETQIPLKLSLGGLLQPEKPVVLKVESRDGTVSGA

Rattus norvegicus [4] = experiment: In vivo antagonist activity at H3 receptor in RAMH-induced dipsogenic Wistar (Krf:(WI) WU) rat model assessed as inhibition of RAMH-water intake at 1.25 mg/kg, ip administered 30 mins prior to RAMH induction; type: functional
Mus musculus [5] = experiment: Anticonvulsant activity in ip dosed albino CF-1 mouse assessed as protection against 44 mA current-induced seizure after 0.25 hrs by 6 Hz psychomotor test; type: functional; conditions: CF-1, ip
Mus musculus [6] = experiment: Anticonvulsant activity in ip dosed albino CF-1 mouse assessed as protection against 32 mA current-induced seizure after 1 hr by 6 Hz psychomotor test; type: functional; conditions: CF-1, ip
Mus musculus [7] = experiment: Anticonvulsant activity in ip dosed albino CF-1 mouse assessed as protection against subcutaneous pentylenetetrazole-induced seizures measured after 1 hr; type: functional; conditions: CF-1, 1 h
Mus musculus [8] = experiment: Analgesic activity in ip dosed albino Swiss CD1 mouse assessed reduction in formalin-induced inflammatory pain by measuring reduction in time spent in licking pretreated prior to formalin injection measured at 15 to 30 mins post formalin injection; type: functional
Mus musculus [9] = experiment: Analgesic activity in ip dosed albino Swiss CD1 mouse assessed reduction in formalin-induced inflammatory pain by measuring reduction in time spent in licking treated prior to formalin injection measured at 0 to 5 mins post formalin injection; type: functional
Mus musculus [10] = experiment: (§1) Cognition enhancing effect in albino Swiss CD-1 mouse assessed as reversal of scopolamine-induced amnesia at 20 to 30 mg/kg, ip treated 30 mins prior to acquisition trial followed by scopolamine challenge immediately after acquisition trial by passive avoidance test (reference value: 39.31 +/- 4.01 secs); type: functional, organism-based
[11] = biological target: Histamine H1 receptor (Cavia porcellus) (UniProt P31389); experiment: Agonist activity at histamine H1 receptor in guinea-pig ileum assessed as induction of contractions at 1 to 3 uM after 15 mins; type: functional
Sequence of Histamine H1 receptor (Cavia porcellus) (P31389 whole entry): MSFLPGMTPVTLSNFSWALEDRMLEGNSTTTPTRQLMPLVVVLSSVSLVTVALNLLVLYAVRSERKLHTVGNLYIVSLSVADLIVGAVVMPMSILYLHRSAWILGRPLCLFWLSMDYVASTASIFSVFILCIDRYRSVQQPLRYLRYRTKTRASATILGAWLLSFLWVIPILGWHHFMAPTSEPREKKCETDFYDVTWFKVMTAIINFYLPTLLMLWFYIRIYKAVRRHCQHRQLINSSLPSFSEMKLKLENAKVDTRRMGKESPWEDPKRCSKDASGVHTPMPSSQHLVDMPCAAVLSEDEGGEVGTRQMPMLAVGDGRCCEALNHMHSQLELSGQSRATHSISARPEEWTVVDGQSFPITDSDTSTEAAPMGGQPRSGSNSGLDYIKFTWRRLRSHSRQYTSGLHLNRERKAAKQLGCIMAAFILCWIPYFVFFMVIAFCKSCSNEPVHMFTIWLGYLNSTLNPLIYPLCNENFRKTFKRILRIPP

Rattus norvegicus [12] = experiment: In vivo antagonist activity at H3 receptor in RAMH-induced dipsogenic ip dosed Wistar (Krf:(WI) WU) rat model assessed as inhibition of RAMH-water intake administered 30 mins prior to RAMH induction; type: functional
Histamine H3 receptor [13] = biological target: T1, Histamine H3 receptor; experiment: Antagonist activity at human H3 receptor expressed in HEK293 cells assessed as inhibition of RAMH-induced reduction of forskolin-stimulated cAMP accumulation after 30 mins by Ulight-based TR-FRET assay; type: functional, cell-based
[14] = biological target: Histamine H4 receptor (Homo sapiens) (UniProt Q9H3N8); experiment: Displacement of [3H]-Histamine from human histamine H4 receptor expressed in insect sf9 cell membranes at 1 uM relative to JNJ-7777120
Sequence of Histamine H4 receptor (Homo sapiens) (Q9H3N8 whole entry): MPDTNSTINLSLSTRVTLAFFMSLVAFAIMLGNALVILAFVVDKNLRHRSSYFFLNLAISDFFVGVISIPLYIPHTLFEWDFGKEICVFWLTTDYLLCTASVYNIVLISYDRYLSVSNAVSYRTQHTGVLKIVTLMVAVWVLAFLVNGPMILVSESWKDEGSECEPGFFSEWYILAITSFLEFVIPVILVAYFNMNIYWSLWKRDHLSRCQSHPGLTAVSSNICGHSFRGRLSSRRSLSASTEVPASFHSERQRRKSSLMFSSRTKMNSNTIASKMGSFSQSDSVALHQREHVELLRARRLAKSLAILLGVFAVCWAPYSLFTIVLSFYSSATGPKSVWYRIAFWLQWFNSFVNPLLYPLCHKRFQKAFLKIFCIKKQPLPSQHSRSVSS

[15] = biological target: Histamine H1 receptor (Cavia porcellus) (UniProt P31389); experiment: Antagonist activity at histamine H1 receptor in guinea-pig ileum assessed as inhibition of histamine-induced contractions after 15 mins; type: functional
[16] = biological target: D(1B) dopamine receptor (Homo sapiens) (UniProt P21918); experiment: Displacement of [3H]-SCH23390 from human dopamine D5 receptor expressed in HEK293 cell membranes at 1 uM relative to fluphenazin
Sequence of D(1B) dopamine receptor (Homo sapiens) (P21918 whole entry): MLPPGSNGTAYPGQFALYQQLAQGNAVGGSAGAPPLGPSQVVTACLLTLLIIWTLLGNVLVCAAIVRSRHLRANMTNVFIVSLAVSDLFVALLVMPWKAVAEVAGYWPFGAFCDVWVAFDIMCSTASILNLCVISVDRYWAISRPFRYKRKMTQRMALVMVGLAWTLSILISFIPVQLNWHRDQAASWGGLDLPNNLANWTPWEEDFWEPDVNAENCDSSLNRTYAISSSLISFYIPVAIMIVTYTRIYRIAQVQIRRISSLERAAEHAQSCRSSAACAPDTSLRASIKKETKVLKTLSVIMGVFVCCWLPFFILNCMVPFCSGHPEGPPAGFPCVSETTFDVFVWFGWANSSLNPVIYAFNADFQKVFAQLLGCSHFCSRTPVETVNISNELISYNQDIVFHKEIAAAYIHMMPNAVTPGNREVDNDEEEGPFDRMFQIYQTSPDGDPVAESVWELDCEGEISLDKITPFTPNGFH

[17] = biological target: 5-hydroxytryptamine receptor 6 (Homo sapiens, UniProt P50406); experiment: Displacement of [3H]-LSD from human 5-HT6 receptor expressed in HEK293 cell membranes after 1 hr
[18] = biological target: Histamine H1 receptor (Homo sapiens) (UniProt P35367); experiment: Displacement of [3H]-pyrilamine from human histamine H1 receptor expressed in CHO cell membranes at 1 uM relative to chlorpheniramine
Sequence of Histamine H1 receptor (Homo sapiens) (P35367 whole entry): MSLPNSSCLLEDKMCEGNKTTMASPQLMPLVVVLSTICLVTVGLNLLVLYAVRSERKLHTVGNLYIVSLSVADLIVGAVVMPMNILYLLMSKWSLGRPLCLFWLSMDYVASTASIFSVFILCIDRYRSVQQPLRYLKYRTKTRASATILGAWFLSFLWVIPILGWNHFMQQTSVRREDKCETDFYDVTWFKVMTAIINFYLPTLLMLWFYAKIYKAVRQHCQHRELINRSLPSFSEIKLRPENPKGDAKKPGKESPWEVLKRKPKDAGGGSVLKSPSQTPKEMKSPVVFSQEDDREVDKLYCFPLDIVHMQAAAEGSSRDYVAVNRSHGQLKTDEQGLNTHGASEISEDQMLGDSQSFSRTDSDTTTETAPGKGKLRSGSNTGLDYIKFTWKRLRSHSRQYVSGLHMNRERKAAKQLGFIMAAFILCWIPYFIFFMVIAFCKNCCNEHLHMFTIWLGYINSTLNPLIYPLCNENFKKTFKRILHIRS

[19] = biological target: 5-hydroxytryptamine receptor 7 (Homo sapiens, UniProt P34969); experiment: Displacement of [3H]-5-carboxyamidotryptamine from human 5-HT7 receptor expressed in HEK293 cell membranes after 1 hr
Sequence of 5-hydroxytryptamine receptor 7 (P34969 whole entry): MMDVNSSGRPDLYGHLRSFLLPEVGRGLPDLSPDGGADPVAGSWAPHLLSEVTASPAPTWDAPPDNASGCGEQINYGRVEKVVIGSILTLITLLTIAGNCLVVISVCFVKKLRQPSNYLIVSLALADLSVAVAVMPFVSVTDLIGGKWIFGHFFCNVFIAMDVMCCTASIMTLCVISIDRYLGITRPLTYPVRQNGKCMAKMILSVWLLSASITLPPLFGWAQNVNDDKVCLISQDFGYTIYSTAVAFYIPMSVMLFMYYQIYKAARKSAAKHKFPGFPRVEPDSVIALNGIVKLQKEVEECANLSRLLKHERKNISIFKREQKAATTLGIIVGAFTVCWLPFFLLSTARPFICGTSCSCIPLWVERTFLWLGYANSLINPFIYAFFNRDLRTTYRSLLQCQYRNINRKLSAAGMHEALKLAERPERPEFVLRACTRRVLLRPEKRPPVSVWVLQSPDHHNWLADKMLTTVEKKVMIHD

[20] = biological target: Muscarinic acetylcholine receptor M3 (Cavia porcellus) (UniProt Q8VH26); experiment: Agonist activity at muscarinic M3 receptor in guinea-pig ileum assessed as induction of contractions at 1 to 3 uM after 15 mins; type: functional
Sequence of Muscarinic acetylcholine receptor M3 (Cavia porcellus) (Q8VH26 1-587): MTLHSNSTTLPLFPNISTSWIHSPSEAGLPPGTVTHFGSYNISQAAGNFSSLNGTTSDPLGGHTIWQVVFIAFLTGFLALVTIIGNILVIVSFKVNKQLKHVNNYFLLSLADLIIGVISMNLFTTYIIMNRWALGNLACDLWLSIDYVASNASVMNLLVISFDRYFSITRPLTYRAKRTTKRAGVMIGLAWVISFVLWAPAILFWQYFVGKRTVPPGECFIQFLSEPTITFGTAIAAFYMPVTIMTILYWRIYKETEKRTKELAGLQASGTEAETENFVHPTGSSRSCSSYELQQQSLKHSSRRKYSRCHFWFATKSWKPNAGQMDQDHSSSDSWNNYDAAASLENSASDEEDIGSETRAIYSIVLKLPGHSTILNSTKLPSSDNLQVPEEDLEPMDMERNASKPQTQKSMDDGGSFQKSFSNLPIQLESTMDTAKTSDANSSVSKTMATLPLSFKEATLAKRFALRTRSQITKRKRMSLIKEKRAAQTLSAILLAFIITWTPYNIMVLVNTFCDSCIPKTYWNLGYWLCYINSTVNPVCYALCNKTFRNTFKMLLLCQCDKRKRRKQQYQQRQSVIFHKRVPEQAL

Mus musculus [21] = experiment: as §1, with “amnesia by measuring latency time” for “amnesia”, “10” for “20 to 30”; type: functional
Histamine H1 receptor = Histamine H1 receptor (Cavia porcellus, UniProt P31389); experiment: Antagonist potency at histamine H1 receptor in guinea-pig ileum assessed as inhibition of histamine-induced contractions at 0.3 to 3 uM after 15 mins; type: functional; conditions: read-out: pA2 (converted)
Sequence of Histamine H1 receptor (P31389 whole entry): as the sequence (P31389 whole entry) above

Mus musculus [22] = experiment: as §1, with “amnesia by measuring latency time” for “amnesia”, “15” for “20 to 30”; type: functional
[23] = biological target: D(2) dopamine receptor (Homo sapiens) (UniProt P14416); experiment: Displacement of [3H]-spiperone from human dopamine D2 receptor expressed in CHO cell membranes at 1 uM relative to haloperidol
Sequence of D(2) dopamine receptor (Homo sapiens) (P14416 whole entry): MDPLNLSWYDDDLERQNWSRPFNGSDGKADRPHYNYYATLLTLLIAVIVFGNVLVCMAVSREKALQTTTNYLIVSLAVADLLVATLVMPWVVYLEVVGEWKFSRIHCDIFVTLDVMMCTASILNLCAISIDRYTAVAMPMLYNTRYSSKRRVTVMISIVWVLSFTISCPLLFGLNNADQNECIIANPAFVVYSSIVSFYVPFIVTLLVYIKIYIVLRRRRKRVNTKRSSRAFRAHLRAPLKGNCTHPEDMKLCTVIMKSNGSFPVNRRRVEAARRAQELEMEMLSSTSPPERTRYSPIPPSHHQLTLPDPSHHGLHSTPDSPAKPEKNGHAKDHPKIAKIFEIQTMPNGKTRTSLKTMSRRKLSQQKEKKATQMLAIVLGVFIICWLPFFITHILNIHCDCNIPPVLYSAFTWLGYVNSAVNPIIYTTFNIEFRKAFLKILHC

[24] = biological target: D(3) dopamine receptor (Homo sapiens) (UniProt P35462); experiment: Displacement of [3H]-spiperone from human dopamine D3 receptor expressed in CHO cell membranes at 1 uM relative to haloperidol
[25] = biological target: 5-hydroxytryptamine receptor 2A (Homo sapiens, UniProt P28223); experiment: Displacement of [3H]-ketanserin from human 5-HT2A receptor expressed in CHO cell membranes after 1 hr
Sequence of 5-hydroxytryptamine receptor 2A (P28223 whole entry): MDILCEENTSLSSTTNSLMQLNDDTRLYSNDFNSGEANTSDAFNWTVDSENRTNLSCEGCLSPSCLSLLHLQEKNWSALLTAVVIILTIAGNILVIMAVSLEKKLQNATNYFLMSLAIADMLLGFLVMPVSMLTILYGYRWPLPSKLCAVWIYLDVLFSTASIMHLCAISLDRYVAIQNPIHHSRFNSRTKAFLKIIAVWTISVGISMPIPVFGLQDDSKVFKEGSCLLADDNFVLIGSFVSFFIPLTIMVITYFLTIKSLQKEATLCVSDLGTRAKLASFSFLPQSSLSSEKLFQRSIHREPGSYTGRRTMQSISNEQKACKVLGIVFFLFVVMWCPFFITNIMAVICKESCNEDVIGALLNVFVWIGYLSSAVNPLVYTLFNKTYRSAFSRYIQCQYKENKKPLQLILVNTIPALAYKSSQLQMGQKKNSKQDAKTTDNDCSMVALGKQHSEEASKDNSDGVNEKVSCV

[26] = biological target: D(1A) dopamine receptor (Homo sapiens) (UniProt P21728); experiment: Displacement of [3H]-SCH23390 from human dopamine D1 receptor expressed in HEK293 cell membranes at 1 uM relative to fluphenazin
Mus musculus [27] = experiment: Effect on spontaneous locomotor activity in ip dosed albino Swiss CD1 mouse assessed as inhibition of number of light beam crossings treated for 30 mins measured for next 30 mins in 10 min intervals; type: organism-based; conditions: in vivo, 0.5 h
Histamine H3 receptor [28] = biological target: Histamine H3 receptor (Rattus norvegicus, UniProt Q9QYN8); experiment: Displacement of [3H]-(R)alpha-MeHA from rat brain H3 receptor
[29] = Therapeutic index, ratio of ip dosed albino CF-1 mouse TD50 to ip dosed albino CF-1 mouse ED50 for MES assay; type: toxicity, organism-based; conditions: in vivo, read-out: TI
[30] = Neurotoxicity in ip dosed albino CF-1 mouse after 0.25 hrs by rotarod test; type: toxicity, organism-based; conditions: in vivo
Mus musculus [31] = experiment: Anticonvulsant activity in ip dosed albino CF-1 mouse assessed as protection against maximal electroshock-induced seizures after 1 hr; type: functional; conditions: CF-1, ip
Histamine H3 receptor [32] = biological target: T1, Histamine H3 receptor; experiment: Displacement of […] from full length recombinant human H3 receptor expressed in HEK293 cell membranes after 90 mins by scintillation counting method
Mus musculus [33] = experiment: as §1, with “amnesia by measuring latency time” for “amnesia”, “at” for “at 20 to”; type: functional

## CC1CCCN(CCCCCCOc2cccc3ccccc23)C1 (stereo unspecified)
Histamine H3 receptor [1]
  Ki: 47.6 nM

## CC1CCN(CCCCCCOc2ccc3ccccc3c2)CC1
Histamine H3 receptor [1]
  Ki: 92.1 nM

## CC1CCCN(CCCCCOc2cccc3ccccc23)C1 (stereo unspecified)
HEK293
  IC50: > 50000 nM
HepG2
  IC50: 38600 nM
IMR-32
  IC50: 32300 nM
Histamine H3 receptor [1]
  Ki: 32.8 nM
Salmonella typhimurium [2]
  Activity: Non-Toxic
Salmonella typhimurium [3]
  Activity: Non-Toxic
CYP3A4
  inhibition at 25 µM: 50%

## c1ccc2cc(OCCCCCCN3CCCCCC3)ccc2c1
Histamine H3 receptor [1]
  Ki: 69.3 nM

## CC1CCCN(CCCCCOc2ccc3ccccc3c2)C1 (stereo unspecified)
Histamine H3 receptor [1]
  Ki: 42.3 nM

## CC1CCN(CCCCCCOc2cccc3ccccc23)CC1
Histamine H3 receptor [1]
  Ki: 126 nM

## CC1CCN(CCCCCOc2ccc3ccccc3c2)CC1
Histamine H3 receptor [1]
  Ki: 95 nM

## COc1cccc2c1C(=O)c1c(O)c3c(c(O)c1C2=O)C[C@@](O)(C(=O)CO)C[C@@H]3O[C@H]1C[C@H](N)[C@H](O)[C@H](C)O1 [DOXORUBICIN]
HEK293
  IC50: 360 nM
HepG2
  IC50: 550 nM
IMR-32
  IC50: 50 nM

## CC1CCCN(CCCCCCOc2ccc3ccccc3c2)C1 (stereo unspecified)
Histamine H3 receptor [1]
  Ki: 55.9 nM

## Clc1ccc(CCCOCCCN2CCCCC2)cc1 [PITOLISANT]
Rattus norvegicus [4]
  inhibition in vivo at 1.25 mg/kg: 87.4%

## CCCC(CCC)C(=O)O [VALPROIC ACID]
Mus musculus [5]
  ED50: 310 mg/kg
Mus musculus [6]
  ED50: 126 mg/kg
Mus musculus [7]
  ED50: 220 mg/kg

## c1ccc2cc(OCCCCCCN3CCCCC3)ccc2c1
Histamine H3 receptor [1]
  Ki: 61.8 nM

## c1ccc2cc(OCCCCCN3CCCCC3)ccc2c1
Histamine H3 receptor [1]
  Ki: 53.5 nM

## CC(=O)Oc1ccccc1C(=O)O [ASPIRIN]
Mus musculus [8]
  ED50: 25.2 mg/kg

## c1ccc2c(OCCCCCN3CCCCCC3)cccc2c1
HEK293
  IC50: > 50000 nM
Mus musculus [8]
  ED50: 20.8 mg/kg
HepG2
  IC50: 25300 nM
Mus musculus [9]
  ED50: 30.6 mg/kg
Mus musculus [10]
  Activity: inactive
IMR-32
  IC50: 35700 nM
[11]
  Activity: inactive
Rattus norvegicus [12]
  ED50: 3.68 mg/kg
Histamine H3 receptor [13]
  IC50: 312 nM
  inhibition: Dose-dependent effect
[14]
  inhibition: 29%
[15]
  inhibition: Dose-dependent effect
[16]
  inhibition: -10%
Histamine H3 receptor [1]
  Ki: 21.9 nM
[17]
  Ki: 1840 nM
[18]
  inhibition: 19%
Salmonella typhimurium [2]
  Activity: Non-Toxic
[19]
  Ki: 2800 nM
[20]
  Activity: inactive
Mus musculus [21]
  Time: 83.61 s
Salmonella typhimurium [3]
  Activity: Non-Toxic
Histamine H1 receptor
  Kb: 708 nM
CYP3A4
  inhibition at 25 µM: 50%
Mus musculus [22]
  Time: 91.47 s
[23]
  inhibition: 12%
[24]
  inhibition: 17%
[25]
  Ki: 2610 nM
[26]
  inhibition: 14%
Mus musculus [27]
  ED50: 20.47 mg/kg

## S=C(NC1CCCCC1)N1CCC(c2cnc[nH]2)CC1 [THIOPERAMIDE]
Histamine H3 receptor [28]
  Ki: 2.1 nM

## Nc1nnc(-c2cccc(Cl)c2Cl)c(N)n1 [LAMOTRIGINE]
[29]
  selectivity ratio: 4
Mus musculus [5]
  ED50: > 60 mg/kg
Mus musculus [6]
  ED50: > 60 mg/kg
[30]
  TD50 at 0.25 h: 30 mg/kg
Mus musculus [7]
  ED50: > 40 mg/kg
Mus musculus [31]
  ED50: 7.47 mg/kg

## c1ccc2cc(OCCCCCN3CCCCCC3)ccc2c1
Histamine H3 receptor [1]
  Ki: 57.3 nM

## CC1CCN(CCCCCOc2cccc3ccccc23)CC1
Histamine H3 receptor [1]
  Ki: 43.3 nM

## CN1CC[C@]23c4c5ccc(O)c4O[C@H]2[C@@H](O)C=C[C@H]3[C@H]1C5 [MORPHINE]
Mus musculus [9]
  ED50: 2.38 mg/kg

## c1ccc2c(OCCCCCCN3CCCCCC3)cccc2c1
Mus musculus [8]
  ED50: 18.1 mg/kg
Mus musculus [9]
  ED50: 28.3 mg/kg
Histamine H3 receptor [32]
  Ki: 69 nM
Histamine H3 receptor [1]
  Ki: 69.3 nM
Mus musculus [33]
  Time: 68.64 s
Mus musculus [22]
  Time: 87.77 s
Mus musculus [27]
  ED50: 21.66 mg/kg

## c1ccc2c(OCCCCCCN3CCCCC3)cccc2c1
Histamine H3 receptor [1]
  Ki: 52.9 nM
